Format in all cases: physicochemical
A short description of data set [1]: Permanence: relative fade of 0.6 OD yellow block under fluorescent illumination. To be noted: dye alone in ink; for permanence (relative fade): 0.6 OD block on Ilford Printasia Glossy Photo Paper, 504 hours, 43-kLux cool white fluorescent, higher = more fade. As to the method:
(§1) The color data was collected on a Gretag-McBeth Spectolino/Spectrascan with 100% coverage patches printed on Kodak Premium Photo Paper. Permanence was evaluated by measuring the relative fade of 0.6 OD yellow block printed on Ilford Printasia Glossy Photo Paper after 504 hours of exposure to 43-kLux cool white fluorescent illumination.

A short description of data set [2]: CIELAB color data and optical density of printed ink patches (Gretag-McBeth Spectolino/Spectrascan). Conditions: dye alone in ink.
Excerpt: CIELAB Color System-Space: The CIELAB color system was established by the Commission Internationale de l'Eclairage (CIE) in 1976. It is color space to be used for the specification of color differences. The L* is a correlate to perceived lightness ranging from 0.0 for black to 100.0 for a diffuse white. The a* and b* dimensions correlate approximately with red-green and yellow-blue chroma perceptions. They take on both negative and positive values. Their maximum values are limited by the physical properties of materials. The color difference (ΔE*ab) between two color points. (L*[…]) and (L*2, a*2, b2), is defined by the distance between the two points and computed by ΔE*ab=[(L*2−L*1)^2+(a*2−a*1)^2+(b*2−b*1)^2]^1/2
The cylindrical coordinate system provides predictors of lightness. L*, chroma, C*, and hue, H*. The chroma correlates the colorfulness of an area and the hue correlates the types of colors such as red, green, blue, yellow, etc. The relationship among a*, b*, C* and H* is given by C*=[a*2+b*2]^1/2 H*=tan^−1(b*/a*) a*=C* cos(H*) b*=C* sin(H*)
as §1

Data set [3] is described as follows: Aqueous solubility of dye.
[4] abbreviates: 3% by weight, Kodak Premium Photo Paper.

Turning to Acid Yellow 17, in data set [1] (3% by weight), the “lightfastness / permanence (in words)” value is given as “much better permanence” and the “permanence (relative fade)” value worked out at 27.9%. Further, in data set [2] (3% by weight), the “H* (hue)” value stood at 96.3, the “a*” value is recorded as −10.8, the “b*” value amounted to 92.6 and the optical density amounted to 1.3. In data set [2] (setting [4]), the “C* (chroma)” value worked out at 93.2. The same compound came in with an aqueous solubility in data set [3] of 19%.

Turning to `O=C([O-])C1=NN(c2ccc(S(=O)(=O)[O-])cc2)C(=O)C1N=Nc1ccc(S(=O)(=O)[O-])cc1.[Na+].[Na+].[Na+]` (centres unmarked) [Acid Yellow 23, reference compound], in data set [1] (3% by weight), the “lightfastness / permanence (in words)” value is recorded as “extremely poor lightfastness” and the “permanence (relative fade)” value is recorded as 86.6%. Moreover, in data set [2] (3% by weight), the “H* (hue)” value is reported as 89.5, the “a*” value came to 1.0, the “b*” value is reported as 110.3 and the optical density was found to be 1.5. Also, in data set [2] (setting [4]), the “C* (chroma)” value came to 110.3. In data set [3], this compound returned an aqueous solubility of 40%.

With Direct Yellow 132, the “permanence (relative fade)” value in data set [1] (3.4% by weight) worked out at 18%. Besides, in data set [2] (3.4% by weight), the “C* (chroma)” value is 106.7, the “H* (hue)” value is listed as 86.9, the “a*” value turned out to be 5.9 and the “b*” value worked out at 106.3. For the same compound, in data set [2] (3.4% by weight), the optical density is 1.7. Also, in data set [3], the aqueous solubility was 13%.

The record behind these values is US7040746B2, “Inkjet ink having yellow dye mixture” (Lexmark International, Inc., priority 2003, dated 2006).
